# Measurements from patent US11344571B2, “NO containing compositions” (University Court of the University of St. Andrews, priority 2015, dated 2022).
# Counter-ions that a name gives are not always drawn.
# Assays:
# [1] = NO release triggered by constant flow of humid nitrogen gas (11% RH), chemiluminescence nitric oxide analyser; assay type: physicochemical; details: humid nitrogen 11% RH; for total nitric oxide released: in 19 hr
# Source text: The release of NO from the sample was first triggered by passing a constant flow of humid nitrogen gas (11% RH) over it. The amount of NO released over time was detected using a Sievers NOA 280i chemiluminescence nitric oxide analyser until the emission of NO reached a level lower than 20 ppb.
# [2] = NO release triggered by UV light (300-400 nm), chemiluminescence analysis
# Experimental: After the NO release was completed the sample was kept on the bench at room temperature, exposed to air and humidity for over 48 hr.
# The release of NO over time was recorded using the same analyser described above.
# [3] = Gravimetric NO adsorption/desorption isotherms at 298K; assay type: physicochemical
# Experimental: The nitric oxide adsorption/desorption profiles for two further chlorhexidine diacetate samples (25 mg) were collected using a bespoke gravimetric adsorption system. Each sample was exposed to high vacuum at a pressure of 1×10^−4 mbar overnight until no further mass loss was observed. The samples were cooled to 298K using a water bath (temperature accuracy of 0.02K).
# For one sample, shown in the outer plot of FIGS. 2A-2B, NO was introduced in increasing increments. After each dose of NO, the mass of the sample was allowed to stabilise (indicating completion of adsorption) before the next addition was made. This process was continued until the introduced pressure of NO was equal to atmospheric pressure. The second sample was exposed to one atmosphere of NO in a single step, and its mass allowed to equilibrate. Data is shown in the inner plot of FIGS. 2A-2B. The desorption profiles of both samples, shown in FIGS. 2A-2B, were measured by reducing the pressure in increments to a final value of 2×10^−2 mbar.
# [4] = NO release from NO-loaded sample submersed in deionized water, chemiluminescence analysis; assay type: physicochemical
# Experimental: The NO-loaded sample was submersed under 5 ml of deionized water in a sealed chamber connected to an NO analyser. A constant flow of nitrogen was bubbled through the suspension while measuring the concentration of NO present in the chamber atmosphere.
# The release of NO from the sample triggered by the water was measured in ppm and ppb over time until the level of NO dropped below 20 ppb. The initial burst release of NO reached 40 ppm. The sample released up to 0.035 mmol/g of nitric oxide in 7 hrs (FIG. 5A).
smiles,measurement,setting,value
NS(=O)(=O)c1cc(C(=O)O)c(NCc2ccco2)cc1Cl [furosemide],initial burst of release of NO (peak),[1],512 ppm
same,total nitric oxide released,[1],up to 0.042 mmol/g
N=C(NCCCCCCNC(=N)NC(=N)Nc1ccc(Cl)cc1)NC(=N)Nc1ccc(Cl)cc1 [chlorhexidine dihydrochloride],duration of initial burst release of NO on humidity,[1],a couple of minutes
same,UV-triggered burst of NO (peak),[2]; after 2 days on bench in humid air,up to 150 ppb
same,NO level to which UV-triggered burst dropped,"[2]; over 1 hr, after 2 days in humid air",75 ppb
N=C(NCCCCCCNC(=N)NC(=N)Nc1ccc(Cl)cc1)NC(=N)Nc1ccc(Cl)cc1 [chlorhexidine diacetate],"maximum NO adsorbed, molecules of NO per molecule of chlorhexidine",[3]; NO pressure up to atmospheric,0.55 molecules of NO per molecule of chlorhexidine
same,maximum NO adsorbed,"[3]; NO pressure up to atmospheric, gravimetric",~0.9 mmole of NO per gram
same,"level of stored NO after reapplication of vacuum, molecules per molecule of chlorhexidine",[3]; desorption to 2x10^-2 mbar,circa 0.25 molecules per molecule of chlorhexidine
same,level of stored NO after reapplication of vacuum,"[3]; desorption to 2x10^-2 mbar, both samples",~0.4 mmole per gram
same,initial burst release of NO (peak),"[4]; 100 mg under 5 ml deionized water, nitrogen bubbled",40 ppm
same,total nitric oxide released,"[4]; in water, in 7 hrs",up to 0.035 mmol/g
same,initial burst of release of NO (peak),[1],512 PPM
same,total NO release,[1]; in 18 hrs,0.03 mmol/g
same,total nitric oxide released,[1],up to 0.042 mmol/g
same,UV-triggered immediate burst of NO release,"[2]; burst from 30 ppb, after over 48 hr on bench in air and humidity",105 ppb
same,maximum NO on continuous UV exposure,"[2]; continuous exposure about 5 mins, after over 48 hr storage in air",around 120 ppb
same,NO release level sustained under continuous UV exposure,[2]; for more than 4 hrs,over 70 ppb
same,maximum NO on continuous UV exposure,"[2]; sample in water, immediately after water-triggered release, about 10 minutes",around 1000 ppb
O=C(O)c1cn(C2CC2)c2cc(N3CCNCC3)c(F)cc2c1=O [ciprofloxacin],duration of initial burst release of NO on humidity,[1],a couple of minutes
